Drawing on ChEMBL document CHEMBL1138911 (Bioorg Med Chem Lett, 2006), this text covers Efficacy and ED50 for one molecule.

Assay [1] concerns Mus musculus. As to the kind of experiment: Analgesic activity in iv dosed DBA mouse by tail clip assay. The format is functional.
The species named for assay [2] is Mus musculus. The assay can be described thus: animal or person. The settings on record: DBA, Tail, iv.
Description: Analgesic activity in iv dosed DBA mouse by tail flick assay
Assay [3] is filed under the species Mus musculus. The assay can be described thus: animal or person. The settings on record: DBA, iv.
Description: Analgesic activity in iv dosed DBA mouse by hot plate assay
The species entered for assay [4] is Mus musculus. As to the kind of experiment: animal or person. Particulars: DBA, iv. The source holds these as a separate data set.
Description: Analgesic activity in iv dosed DBA mouse by writhing assay
The species named for assay [5] is Mus musculus. The assay can be described thus: animal or person. The settings on record: SHR, iv.
Description: Analgesic activity in iv dosed SHR mouse by tail clip assay
Assay [6] is filed under the species Mus musculus. As to the kind of experiment: animal or person. Particulars: SHR, Tail, iv.
Description: Analgesic activity in iv dosed SHR mouse by tail flick assay
The species named for assay [7] is Mus musculus. As to the kind of experiment: animal or person. Particulars: SHR, iv. This is another data set of the same source.
Description: Analgesic activity in iv dosed SHR mouse by hot plate assay
Assay [8] is filed under the species Mus musculus. As to the kind of experiment: animal or person. The settings on record: SHR, iv. The source holds these as a separate data set.
Description: Analgesic activity in iv dosed SHR mouse by writhing assay

Molecules are shown by their SMILES.

As for `CO[C@@]12CC[C@@]3(C[C@@H]1[C@](C)(O)C(C)(C)C)[C@H]1Cc4ccc(O)c5c4[C@@]3(CCN1CC1CC1)[C@H]2O5` [BUPRENORPHINE], the Efficacy with Mus musculus [1] turned out to be 46.7%. Further, the ED50 in the assay listed under Mus musculus [2] worked out at 0.312 mg/kg; in the assay filed under Mus musculus [3], 0.195 mg/kg; in the assay listed under Mus musculus [4], 0.0295 mg/kg; in the assay listed under Mus musculus [5], 0.0466 mg/kg; in the assay filed under Mus musculus [6], 0.0404 mg/kg; in the assay listed under Mus musculus [7], 0.0233 mg/kg. Further, the 50% effect level in the assay listed under Mus musculus [8] (ED50) was put at a dose of 0.0223 mg/kg.
